Legend:
[1] = molecular target: T1, Or22a (Drosophila melanogaster, UniProt P81909); assay: GCaMP6f calcium imaging of native OSN somata, open antenna; conditions: agonist; Drosophila Ringer pH 7.3; Hill coefficient 0.8; concentration as applied; n = 12
T1 construct: native receptor in ab3A olfactory sensory neurons of excised open antenna, with endogenous Orco; GCaMP6f calcium reporter; no heterologous expression; with Odorant receptor coreceptor
T1 sequence (P81909 1-397): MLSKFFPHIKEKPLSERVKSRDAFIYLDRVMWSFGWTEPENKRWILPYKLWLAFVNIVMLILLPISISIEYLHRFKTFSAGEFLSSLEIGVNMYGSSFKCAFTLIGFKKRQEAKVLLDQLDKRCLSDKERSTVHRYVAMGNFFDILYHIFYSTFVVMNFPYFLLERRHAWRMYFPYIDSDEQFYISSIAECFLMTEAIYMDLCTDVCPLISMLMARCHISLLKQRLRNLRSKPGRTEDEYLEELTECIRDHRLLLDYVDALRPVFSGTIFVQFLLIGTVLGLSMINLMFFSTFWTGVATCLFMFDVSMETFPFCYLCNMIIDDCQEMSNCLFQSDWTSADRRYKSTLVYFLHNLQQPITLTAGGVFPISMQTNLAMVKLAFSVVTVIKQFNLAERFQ
T1 sequence (Q9VNB5 1-486 partner): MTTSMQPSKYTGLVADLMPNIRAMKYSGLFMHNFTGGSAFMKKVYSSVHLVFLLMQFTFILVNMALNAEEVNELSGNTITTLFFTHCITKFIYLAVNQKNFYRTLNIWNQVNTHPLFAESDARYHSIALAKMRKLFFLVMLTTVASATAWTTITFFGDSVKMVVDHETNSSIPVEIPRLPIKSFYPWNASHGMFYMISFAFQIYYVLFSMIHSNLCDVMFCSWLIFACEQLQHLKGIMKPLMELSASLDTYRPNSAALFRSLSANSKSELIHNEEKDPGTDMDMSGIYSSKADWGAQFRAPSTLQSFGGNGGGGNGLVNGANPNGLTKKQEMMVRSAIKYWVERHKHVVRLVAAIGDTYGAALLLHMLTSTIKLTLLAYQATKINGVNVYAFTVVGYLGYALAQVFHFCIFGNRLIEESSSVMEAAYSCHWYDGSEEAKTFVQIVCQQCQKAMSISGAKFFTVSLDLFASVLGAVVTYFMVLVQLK

[2] = molecular target: T2, Or56a (Drosophila melanogaster, UniProt Q9V8Y7); assay: as above; conditions: agonist; Drosophila Ringer pH 7.3; Hill coefficient 0.6; concentration as applied; n = 9
T2 construct: native receptor in ab4B olfactory sensory neurons of excised open antenna, with endogenous Orco; GCaMP6f calcium reporter; no heterologous expression; with Odorant receptor coreceptor
T2 sequence (Q9V8Y7 1-419): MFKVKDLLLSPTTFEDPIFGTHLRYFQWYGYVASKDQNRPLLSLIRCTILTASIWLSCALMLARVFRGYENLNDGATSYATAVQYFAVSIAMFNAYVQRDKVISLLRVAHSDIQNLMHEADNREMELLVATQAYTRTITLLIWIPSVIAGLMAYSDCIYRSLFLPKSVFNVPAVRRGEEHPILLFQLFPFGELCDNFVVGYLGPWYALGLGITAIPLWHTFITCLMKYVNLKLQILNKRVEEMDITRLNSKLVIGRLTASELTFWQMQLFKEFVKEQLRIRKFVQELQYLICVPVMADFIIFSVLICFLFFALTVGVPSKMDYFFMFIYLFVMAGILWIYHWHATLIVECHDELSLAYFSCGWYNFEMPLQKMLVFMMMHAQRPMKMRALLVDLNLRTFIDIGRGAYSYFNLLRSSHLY
T2 sequence (Q9VNB5 1-486 partner): T1 sequence (Q9VNB5 1-486 partner)

Compound: CCCCCC(=O)OCC [ethyl hexanoate]
- EC50 [1]: 1500 nM

Compound: CC1CCCC2(C)CCCCC12O (racemic) [geosmin]
- EC50 [2]: 25 nM
